The values below are quoted from earlier work in patent US20120130144A1, “TREATMENT OF LUNG CANCER WITH A NITROBENZAMIDE COMPOUND IN COMBINATION WITH A GROWTH FACTOR INHIBITOR” (BiPar Sciences, Inc., priority 2009, published 2012).

The data set has as its system VEGF. As to conditions: human, in vivo; cited from earlier work.

VEGF, sequence (P15692 207-311 limits assumed): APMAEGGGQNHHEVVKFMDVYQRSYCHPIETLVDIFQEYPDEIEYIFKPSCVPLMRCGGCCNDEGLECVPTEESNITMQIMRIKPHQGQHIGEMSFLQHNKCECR

Consider “bevacizumab: first anti-VEGF drug, a monoclonal antibody”, for which the “patients who benefit from therapy” value is given as 10-15%.
